Results from patent US20140228440A1, “1-AMINO-ALKYLCYCLOHEXANE DERIVATIVES FOR THE TREATMENT OF INFLAMMATORY SKIN DISEASES” (MERZ PHARMA GmbH & CO. KGaA, priority 2008, published 2014).

How the values were obtained:
Assay in all cases: MIC and MBC by the agar dilution method
Type in all cases: cell-based
[1] = tested on: Staphylococcus epidermidis ATCC 12228; settings: pH 5.5
Protocol: (§1) To assess the anti-microbial potency of Neramexane against acne relevant bacterias the minimal inhibitory concentration (MIC) and minimal bactericidal concentration (MBC) against the following bacterias is established: The MICs of the samples are determined using the agar dilution method based on DIN 58940. Petri dishes of 5.5 cm diameter are poured with 2.5 ml of freshly prepared Mueller-Hinton agar (Merck company, Cat-No 1.05437) or Wilkins-Chalgren-Agar (Oxoid company, Cat-No CM643), maintained in liquid form at 50° C., to which the sample dilutions at various concentrations have been added at 50.0 vol.-%. To prepare the starting sample dilutions, a 12.5%, 3.12% suspension of the respective sample solution is prepared with Aqua purificata. From these stock-solutions, further dilutions are prepared with Aqua purificata. All test compounds are adjusted to pH 5.5. For test product no. 1, separate dilutions adjusted to pH 6.0 and pH 7.4 are also prepared. For inoculation, 1 μl of the respective germ suspension is placed on the centre of each agar plate. After drying, inoculated plates are incubated at 36.0±2.0° C. The basis for the length of incubation period is the respective growth control cultivated in parallel. The test microbe suspension is prepared by inoculating a few individual colonies of the respective bacteria into sterile saline solution until a turbidity corresponding to the McFarland standard 1.0 (approximately 10^8 cfu/ml) is reached. After that, the test microbe suspensions are further diluted 1:10 with saline solution and the microbial counts (see Table 21) are determined by the surface spread method using a spiral plater. The agar plates are incubated under the conditions given in Table 22 and subsequently evaluated. The MIC-values as given represent the lowest concentration of the active substance at which there is no macroscopically visible growth. Minimal, barely visible growth or few small individual colonies are evaluated as inhibition. [table] All negative tests of the determination of the minimal bactericial concentration are the basis of verification of remaining germs, the inoculated agar segments are cut and put in Mueller-Hinton-Bouillon (germ 1) or Wilkins-Chalgren-Bouillon (germs 2-4). After an adequate incubation period at 36.0±2.0° C. (as judged from a control without test compound), the tests are checked manually on microbial growth (=turbidity) and the minimal bactericidal concentration is determined. MBC indicates the concentration without marked turbidity. Grown germs are checked for identity to rule out unspecific contaminations. The following results are summarized and tabulated: • a) Results of the Minimal Inhibitory Concentration (MIC)* • b) Results of the Minimal Bactericidal Concentration (MBC) *The MIC is the concentration without macroscopical growth. Scarcely apparent, minimum growth or few single colonies are not considered. The controls must have a respectively good developed growth. There must be no growth on the agar plates for the sterile control. The growth of bacteria is indicated for the duplicate plates by a +(i.e., growth) or a −(i.e., no growth), +− indicates weak growth on both plates or growth on one plate and no growth on the other plate. All bacteria show appropriate growth on the respective control plate not containing any test compound. No influence of the used diluent (Aqua purifacata) was observed. No contamination is observed on the control-plates.

[2] = tested on: Propionibacterium acnes ATCC 11828
Protocol: as §1

[3] = tested on: Propionibacterium avidum ATCC 25577; settings: pH 5.5
Protocol: as §1

[4] = final concentration 0.08 %, pH 5.5
[5] = final concentration 0.08 %, pH 6.0
[6] = final concentration 0.16 %, pH 5.5
[7] = final concentration 0.16 %, pH 6.0
[8] = final concentration 0.16 %, pH 7.4
[9] = final concentration 0.31 %, pH 5.5
[10] = final concentration 0.31 %, pH 6.0
[11] = final concentration 0.31 %, pH 7.4
[12] = final concentration 0.63 %, pH 5.5
[13] = final concentration 0.63 %, pH 6.0
[14] = final concentration 0.63 %, pH 7.4
[15] = final concentration 1.56 %, pH 5.5
[16] = final concentration 1.56 %, pH 6.0
[17] = final concentration 1.56 %, pH 7.4
[18] = final concentration 2.50 %, pH 5.5
[19] = final concentration 2.50 %, pH 6.0
[20] = final concentration 2.50 %, pH 7.4
[21] = final concentration 3.13 %, pH 5.5
[22] = final concentration 3.13 %, pH 6.0
[23] = final concentration 3.13 %, pH 7.4
[24] = final concentration 6.25 %, pH 5.5
[25] = final concentration 6.25 %, pH 6.0
[26] = final concentration 6.25 %, pH 7.4

Structure (SMILES): CC1(C)CC(C)(C)CC(C)(N)C1.CS(=O)(=O)O [Neramexane mesylate]
- growth of bacteria on duplicate plates (MIC determination) ([1]; final concentration 0.01 %): + +
- growth of bacteria on duplicate plates (MIC determination) ([1]; final concentration 0.04 %): + +
- growth of bacteria on duplicate plates (MIC determination) ([1]; final concentration 0.08 %): + +
- growth of bacteria (MBC determination) ([1]; final concentration 0.16 %): + +
- growth of bacteria on duplicate plates (MIC determination) ([1]; final concentration 0.16 %): − −
- growth of bacteria (MBC determination) ([1]; final concentration 0.31 %): + +
- growth of bacteria on duplicate plates (MIC determination) ([1]; final concentration 0.31 %): − −
- growth of bacteria (MBC determination) ([1]; final concentration 0.63 %): + +
- growth of bacteria on duplicate plates (MIC determination) ([1]; final concentration 0.63 %): − −
- growth of bacteria (MBC determination) ([1]; final concentration 1.56 %): − −
- growth of bacteria on duplicate plates (MIC determination) ([1]; final concentration 1.56 %): − −
- growth of bacteria (MBC determination) ([1]; final concentration 2.50 %): − −
- growth of bacteria on duplicate plates (MIC determination) ([1]; final concentration 2.50 %): − −
- growth of bacteria (MBC determination) ([1]; final concentration 3.13 %): − −
- growth of bacteria on duplicate plates (MIC determination) ([1]; final concentration 3.13 %): − −
- growth of bacteria (MBC determination) ([1]; final concentration 6.25 %): − −
- growth of bacteria on duplicate plates (MIC determination) ([1]; final concentration 6.25 %): − −
- MBC [1]: 1.56%
- MIC [1]: 0.16%
- growth of bacteria on duplicate plates (MIC determination) ([2]; final concentration 0.01 %, pH 5.5): + +
- growth of bacteria on duplicate plates (MIC determination) ([2]; final concentration 0.01 %, pH 6.0): + +
- growth of bacteria on duplicate plates (MIC determination) ([2]; final concentration 0.01 %, pH 7.4): + +
- growth of bacteria on duplicate plates (MIC determination) ([2]; final concentration 0.04 %, pH 5.5): + +
- growth of bacteria on duplicate plates (MIC determination) ([2]; final concentration 0.04 %, pH 6.0): + +
- growth of bacteria on duplicate plates (MIC determination) ([2]; final concentration 0.04 %, pH 7.4): + +
- growth of bacteria (MBC determination) [2, 4]: + +
- growth of bacteria on duplicate plates (MIC determination) [2, 4]: − −
- growth of bacteria (MBC determination) [2, 5]: + +
- growth of bacteria on duplicate plates (MIC determination) [2, 5]: − −
- growth of bacteria on duplicate plates (MIC determination) ([2]; final concentration 0.08 %, pH 7.4): + +
- growth of bacteria (MBC determination) [2, 6]: + +
- growth of bacteria on duplicate plates (MIC determination) [2, 6]: − −
- growth of bacteria (MBC determination) [2, 7]: + +
- growth of bacteria on duplicate plates (MIC determination) [2, 7]: − −
- growth of bacteria (MBC determination) [2, 8]: + +
- growth of bacteria on duplicate plates (MIC determination) [2, 8]: − −
- growth of bacteria (MBC determination) [2, 9]: + +
- growth of bacteria on duplicate plates (MIC determination) [2, 9]: − −
- growth of bacteria (MBC determination) [2, 10]: + +
- growth of bacteria on duplicate plates (MIC determination) [2, 10]: − −
- growth of bacteria (MBC determination) [2, 11]: + +
- growth of bacteria on duplicate plates (MIC determination) [2, 11]: − −
- growth of bacteria (MBC determination) [2, 12]: + +
- growth of bacteria on duplicate plates (MIC determination) [2, 12]: − −
- growth of bacteria (MBC determination) [2, 13]: − −
- growth of bacteria on duplicate plates (MIC determination) [2, 13]: − −
- growth of bacteria (MBC determination) [2, 14]: + +
- growth of bacteria on duplicate plates (MIC determination) [2, 14]: − −
- growth of bacteria (MBC determination) [2, 15]: − −
- growth of bacteria on duplicate plates (MIC determination) [2, 15]: − −
- growth of bacteria (MBC determination) [2, 16]: − −
- growth of bacteria on duplicate plates (MIC determination) [2, 16]: − −
- growth of bacteria (MBC determination) [2, 17]: − −
- growth of bacteria on duplicate plates (MIC determination) [2, 17]: − −
- growth of bacteria (MBC determination) [2, 18]: − −
- growth of bacteria on duplicate plates (MIC determination) [2, 18]: − −
- growth of bacteria (MBC determination) [2, 19]: − −
- growth of bacteria on duplicate plates (MIC determination) [2, 19]: − −
- growth of bacteria (MBC determination) [2, 20]: − −
- growth of bacteria on duplicate plates (MIC determination) [2, 20]: − −
- growth of bacteria (MBC determination) [2, 21]: − −
- growth of bacteria on duplicate plates (MIC determination) [2, 21]: − −
- growth of bacteria (MBC determination) [2, 22]: − −
- growth of bacteria on duplicate plates (MIC determination) [2, 22]: − −
- growth of bacteria (MBC determination) [2, 23]: − −
- growth of bacteria on duplicate plates (MIC determination) [2, 23]: − −
- growth of bacteria (MBC determination) [2, 24]: − −
- growth of bacteria on duplicate plates (MIC determination) [2, 24]: − −
- growth of bacteria (MBC determination) [2, 25]: − −
- growth of bacteria on duplicate plates (MIC determination) [2, 25]: − −
- growth of bacteria (MBC determination) [2, 26]: − −
- growth of bacteria on duplicate plates (MIC determination) [2, 26]: − −
- MBC ([2]; pH 5.5): 1.56%
- MIC ([2]; pH 5.5): 0.08%
- MBC ([2]; pH 6.0): 0.63%
- MIC ([2]; pH 6.0): 0.08%
- MBC ([2]; pH 7.4): 1.56%
- MIC ([2]; pH 7.4): 0.16%
- growth of bacteria on duplicate plates (MIC determination) ([3]; final concentration 0.01 %): + +
- growth of bacteria on duplicate plates (MIC determination) ([3]; final concentration 0.04 %): + +
- growth of bacteria (MBC determination) ([3]; final concentration 0.08 %): + +
- growth of bacteria on duplicate plates (MIC determination) ([3]; final concentration 0.08 %): − −
- growth of bacteria (MBC determination) ([3]; final concentration 0.16 %): + +
- growth of bacteria on duplicate plates (MIC determination) ([3]; final concentration 0.16 %): − −
- growth of bacteria (MBC determination) ([3]; final concentration 0.31 %): + +
- growth of bacteria on duplicate plates (MIC determination) ([3]; final concentration 0.31 %): − −
- growth of bacteria (MBC determination) ([3]; final concentration 0.63 %): − −
- growth of bacteria on duplicate plates (MIC determination) ([3]; final concentration 0.63 %): − −
- growth of bacteria (MBC determination) ([3]; final concentration 1.56 %): − −
- growth of bacteria on duplicate plates (MIC determination) ([3]; final concentration 1.56 %): − −
- growth of bacteria (MBC determination) ([3]; final concentration 2.50 %): − −
- growth of bacteria on duplicate plates (MIC determination) ([3]; final concentration 2.50 %): − −
- growth of bacteria (MBC determination) ([3]; final concentration 3.13 %): − −
- growth of bacteria on duplicate plates (MIC determination) ([3]; final concentration 3.13 %): − −
- growth of bacteria (MBC determination) ([3]; final concentration 6.25 %): − −
- growth of bacteria on duplicate plates (MIC determination) ([3]; final concentration 6.25 %): − −
- MBC [3]: 0.63%
- MIC [3]: 0.08%
